Experimental data published in ChEMBL document CHEMBL1201862, “PubChem BioAssay data set” (2004).
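Cells were grown in 96-well plates and exposed to each compound for 48 hours at five concentrations; endpoints were interpolated linearly between bracketing concentrations, or set to the highest concentration if not reached. GI50 = concentration required for 50% inhibition of growth.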 Activity calls are given as the source filed them. Rule as the data show it: active = GI50 up to about 1.1 µM and inactive = higher.

How the values were obtained:
Assay in all cases: inhibition of tumour cell growth, NCI panel, 48 h
[1] = test system: MDA-N
[2] = test system: RPMI-8226
[3] = test system: OVCAR-4
[4] = test system: SNB-75
[5] = test system: NCI/ADR-RES
[6] = test system: HCT-116
[7] = test system: HOP-92
[8] = test system: SF-268
[9] = test system: MDA-MB-231
[10] = test system: CAKI-1
[11] = test system: OVCAR-5
[12] = test system: MOLT-4
[13] = test system: SN12C
[14] = test system: HL-60
[15] = test system: UACC-62
[16] = test system: PC-3
[17] = test system: CCRF-CEM
[18] = test system: KM12
[19] = test system: LOX IMVI
[20] = test system: Hs-578T

Measured: GI50

Cc1cn(C2C=CC(COP(=O)(OCc3ccc([N+](=O)[O-])o3)N(C)CCCCCl)O2)c(=O)[nH]c1=O (stereo not given)
inactive: [1] 2.63 µM | [2] 2.69 µM | [3] 4.31 µM | [4] 1.58 µM | [5] 33.8 µM | [6] 8.65 µM | [7] 1.95 µM | [8] 7.57 µM | [9] 12.1 µM | [10] 16 µM | [11] 15.6 µM | [12] 10.1 µM | [13] 10.8 µM | [14] 9.31 µM | [15] 4.56 µM | [16] 12.8 µM | [17] 5.43 µM | [18] 6.68 µM | [19] 3.58 µM | [20] 2.17 µM

Cc1[nH]c2ccccc2c1/C=N/NC(=O)c1cccc(I)c1
inactive: [1] 22.1 µM | [2] 19.9 µM | [3] 16.1 µM | [4] 22.4 µM | [5] 20.3 µM | [6] 22.9 µM | [7] 14.4 µM | [8] 40.6 µM | [9] 16.7 µM | [10] 18.2 µM | [11] 25.1 µM | [12] 23.3 µM | [13] 30.2 µM | [14] 26.9 µM | [15] 17.8 µM | [16] 23 µM | [17] 26 µM | [18] 16.3 µM | [19] 15.7 µM | [20] 33.1 µM

Nc1nc(N)c(-c2cccc(C(F)(F)F)c2)c(Cc2cccc(C(F)(F)F)c2)n1
inactive: [2] 6.73 µM | [3] 12.2 µM | [4] 13.6 µM | [5] 7.57 µM | [7] 12.2 µM | [8] 5.55 µM | [9] 13.1 µM | [10] 7.23 µM | [11] 3.48 µM | [12] 2.9 µM | [13] 3.54 µM | [14] 2.2 µM | [16] 11.7 µM | [17] 6.92 µM | [18] 5.15 µM | [19] 1.35 µM | [20] 14.2 µM
active: [1] 0.689 µM | [6] 0.64 µM | [15] 0.693 µM

COc1cc2c(cc1C)NC(=O)/C2=C/c1c(Cl)[nH]c2cc(C)c(OC)cc12
inactive: [1] 2.84 µM | [2] 3.98 µM | [3] 5.48 µM | [4] 2.34 µM | [5] 3.19 µM | [6] 3.85 µM | [7] 10.3 µM | [8] 2.79 µM | [9] 13.2 µM | [10] 4.04 µM | [11] 7.78 µM | [12] 1.45 µM | [13] 1.86 µM | [15] 2.07 µM | [16] 4.23 µM | [18] 4.22 µM | [19] 2.42 µM | [20] 8.65 µM
active: [14] 0.187 µM | [17] 0.458 µM

Cc1ccc(SCC(OCn2cnc3c(Cl)nc(N)nc32)[C@H](C)F)cc1 (stereo not given in full)
inactive: [1] > 100 µM | [2] 36.9 µM | [3] 71.3 µM | [4] > 100 µM | [5] 30.1 µM | [6] 50.4 µM | [7] 63.7 µM | [8] > 100 µM | [9] 46.7 µM | [10] > 100 µM | [11] > 100 µM | [12] 18.9 µM | [13] 43.7 µM | [14] 28.3 µM | [15] > 100 µM | [16] 60.5 µM | [17] 39.1 µM | [18] 81.8 µM | [19] > 100 µM | [20] > 100 µM

CCC(=S)N(C)O
inactive: [1] 35.9 µM | [3] 9.53 µM | [4] 41 µM | [5] 17.1 µM | [6] 2.39 µM | [7] > 85.9 µM | [8] 47.4 µM | [9] 42.4 µM | [10] 81.8 µM | [11] 45.1 µM | [12] 1.88 µM | [13] 22 µM | [14] 1.48 µM | [15] 20 µM | [16] 8.69 µM | [18] 25 µM | [19] 10.6 µM | [20] > 100 µM
active: [2] 0.828 µM | [17] 0.459 µM

O=C1/C(=C/c2ccccc2)CN(C(=O)CCN2CCCC2)C/C1=C\c1ccccc1
inactive: [3] 1.57 µM | [4] 4.98 µM | [7] 4.44 µM | [8] 1.72 µM | [9] 1.51 µM | [10] 3.98 µM | [11] 3.16 µM | [13] 1.51 µM | [15] 1.61 µM
active: [1] 0.426 µM | [2] 0.253 µM | [5] 0.27 µM | [6] 0.355 µM | [12] 0.356 µM | [14] 0.298 µM | [16] 0.724 µM | [17] 0.286 µM | [18] 0.607 µM | [19] 0.687 µM | [20] 0.282 µM

C/C(CC(O)(C(F)(F)F)C(F)(F)F)=N\O
inactive: [1] > 10 µM | [2] > 10 µM | [3] > 10 µM | [4] > 10 µM | [5] > 10 µM | [6] > 10 µM | [7] > 10 µM | [8] > 10 µM | [9] > 10 µM | [10] > 10 µM | [11] > 10 µM | [12] > 10 µM | [13] > 10 µM | [14] > 10 µM | [15] > 10 µM | [16] > 10 µM | [17] > 10 µM | [18] > 10 µM | [19] > 10 µM | [20] > 10 µM

COc1ccc(NS(=O)(=O)c2ccc(NC(NC(=O)CC(C)C)(C(F)(F)F)C(F)(F)F)cc2)nn1
inactive: [1] > 100 µM | [2] > 100 µM | [3] > 100 µM | [4] > 100 µM | [5] > 100 µM | [6] > 100 µM | [7] > 100 µM | [8] > 100 µM | [9] > 100 µM | [10] > 100 µM | [11] > 100 µM | [12] > 100 µM | [13] > 100 µM | [14] > 100 µM | [15] > 100 µM | [16] > 100 µM | [17] > 100 µM | [18] > 100 µM | [19] > 100 µM | [20] > 100 µM
